Reference: ChEMBL document CHEMBL1125407, “Noncataleptogenic, centrally acting dopamine D-2 and serotonin 5-HT2 antagonists within a series of 3-substituted 1-(4-fluorophenyl)-1H-indoles” (J Med Chem, 1992)
pIC50: −log10 of the molar value.

How the values were obtained:
[1] = target: T1, Serotonin 2 (5-HT2) receptor (Rattus norvegicus, UniProt P30994+P08909+P14842); assay: Inhibition of [3H]ketanserin binding to rat 5-hydroxytryptamine 2 receptors.; type: protein assay
[2] = target: D(2) dopamine receptor (Rattus norvegicus) (UniProt P61169); assay: Tested in vivo for induction of catalepsy against D2 receptor in rats; type: functional, organism-based
Chain of D(2) dopamine receptor (Rattus norvegicus) (P61169 whole entry): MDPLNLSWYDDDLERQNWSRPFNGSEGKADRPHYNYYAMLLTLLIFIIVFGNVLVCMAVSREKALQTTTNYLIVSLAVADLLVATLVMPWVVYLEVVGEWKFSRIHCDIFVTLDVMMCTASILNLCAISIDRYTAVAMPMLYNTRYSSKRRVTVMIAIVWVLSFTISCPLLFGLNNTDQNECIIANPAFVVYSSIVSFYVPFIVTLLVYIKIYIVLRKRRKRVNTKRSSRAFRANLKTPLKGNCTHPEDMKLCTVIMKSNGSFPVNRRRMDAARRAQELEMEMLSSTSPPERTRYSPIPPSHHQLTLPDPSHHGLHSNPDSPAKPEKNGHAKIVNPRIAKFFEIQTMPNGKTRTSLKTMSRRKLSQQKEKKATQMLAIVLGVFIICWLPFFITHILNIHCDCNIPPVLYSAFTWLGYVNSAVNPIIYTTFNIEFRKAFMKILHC

D(2) dopamine receptor = D(2) dopamine receptor (Rattus norvegicus, UniProt P61169); assay: Tested for the inhibition of [3H]spiperone binding to dopamine D2 receptor
Chain of D(2) dopamine receptor (P61169 whole entry): as above

Rattus norvegicus [3] = species on record: Rattus norvegicus; assay: Inhibition of quipazine induced head twitches in rats; type: functional
[4] = target: D(2) dopamine receptor (Mus musculus) (UniProt P61168); assay: Tested in vivo for methyl phenidate-induced gnawing behavior antagonistic activity against dopamine D2 receptor in mice; type: functional, organism-based
Chain of D(2) dopamine receptor (Mus musculus) (P61168 whole entry): as the sequence (P61169 whole entry) above, with A29P counted along it

[5] = target: T1, Serotonin 2 (5-HT2) receptor; assay: Inhibition of [3H]ketanserin binding to […] 5-hydroxytryptamine 2 receptor; type: protein assay
Rattus norvegicus [6] = assay: Compound was tested for the inhibition of quipazine-induced head twitches 24 hours after subcutaneous administration; type: functional; details: sc
[7] = target: D(2) dopamine receptor (Rattus norvegicus) (UniProt P61169); assay: Compound was tested in vivo for induction of catalepsy against D-2 receptor in rats; type: organism-based
[8] = target: D(2) dopamine receptor (Rattus norvegicus) (UniProt P61169); assay: (§1) Compound was tested in vivo for methyl phenidate-induced gnawing behavior antagonistic activity against dopamine D-2 receptor in mice; type: functional, organism-based
[9] = target: T2, Serotonin 2 (5-HT2) receptor (Rattus norvegicus) (UniProt P30994+P08909+P14842); assay: Compound was tested for the inhibition of quipazine binding at 5-hydroxytryptamine 2 receptor; type: protein assay
T2 sequence (P08909 whole entry, looked up): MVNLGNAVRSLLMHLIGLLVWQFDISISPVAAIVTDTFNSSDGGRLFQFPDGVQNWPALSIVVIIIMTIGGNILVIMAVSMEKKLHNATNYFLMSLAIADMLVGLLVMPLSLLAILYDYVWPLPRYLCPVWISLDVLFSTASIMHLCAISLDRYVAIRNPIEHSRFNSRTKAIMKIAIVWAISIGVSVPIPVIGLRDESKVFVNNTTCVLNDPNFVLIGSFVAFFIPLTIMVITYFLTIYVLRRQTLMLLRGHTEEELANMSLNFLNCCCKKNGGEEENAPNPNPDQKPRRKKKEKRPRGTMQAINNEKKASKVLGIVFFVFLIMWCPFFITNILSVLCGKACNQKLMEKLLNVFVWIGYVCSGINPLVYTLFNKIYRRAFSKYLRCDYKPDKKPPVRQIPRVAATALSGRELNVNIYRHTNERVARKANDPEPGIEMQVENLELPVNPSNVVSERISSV
T2 sequence (P14842 whole entry, looked up): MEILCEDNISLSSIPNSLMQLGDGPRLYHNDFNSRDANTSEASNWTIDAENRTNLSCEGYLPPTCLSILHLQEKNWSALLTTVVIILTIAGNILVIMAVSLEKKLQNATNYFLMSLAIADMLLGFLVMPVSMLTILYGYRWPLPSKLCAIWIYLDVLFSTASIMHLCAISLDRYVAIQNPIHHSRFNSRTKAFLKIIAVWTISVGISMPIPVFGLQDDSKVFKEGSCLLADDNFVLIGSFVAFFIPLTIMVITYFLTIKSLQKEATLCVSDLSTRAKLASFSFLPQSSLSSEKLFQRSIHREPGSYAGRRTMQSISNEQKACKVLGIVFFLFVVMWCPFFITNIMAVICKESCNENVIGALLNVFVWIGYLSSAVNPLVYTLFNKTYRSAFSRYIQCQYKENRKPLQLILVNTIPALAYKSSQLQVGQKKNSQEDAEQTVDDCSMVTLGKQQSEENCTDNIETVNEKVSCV
T2 sequence (P30994 whole entry, looked up): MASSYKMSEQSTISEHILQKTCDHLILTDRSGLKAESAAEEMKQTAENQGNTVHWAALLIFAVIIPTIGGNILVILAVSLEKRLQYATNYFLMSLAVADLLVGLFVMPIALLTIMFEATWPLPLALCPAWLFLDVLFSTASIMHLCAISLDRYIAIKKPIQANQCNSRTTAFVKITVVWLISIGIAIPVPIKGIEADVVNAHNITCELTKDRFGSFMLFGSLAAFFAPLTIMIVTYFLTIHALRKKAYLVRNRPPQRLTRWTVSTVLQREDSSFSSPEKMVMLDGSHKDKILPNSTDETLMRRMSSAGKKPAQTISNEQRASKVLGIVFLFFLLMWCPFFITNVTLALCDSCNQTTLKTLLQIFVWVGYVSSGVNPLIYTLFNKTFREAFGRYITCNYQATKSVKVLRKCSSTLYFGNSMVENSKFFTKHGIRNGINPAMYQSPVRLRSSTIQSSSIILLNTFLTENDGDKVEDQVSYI

[10] = target: T2, Serotonin 2 (5-HT2) receptor (Rattus norvegicus); assay: Compound was tested for the inhibition of quipazine binding at 5-HT2 receptor; type: protein assay
[11] = target: D(2) dopamine receptor (Mus musculus) (UniProt P61168); assay: as §1; type: functional, organism-based

| Structure (SMILES) | IC50 [1] | pIC50 (D(2) dopamine receptor) | ED50 [4] | ED50 [2] | ED50 (Rattus norvegicus [3]) | further results |
| --- | --- | --- | --- | --- | --- | --- |
| CN1CC=C(c2cn(-c3ccc(F)cc3)c3ccc(F)cc23)CC1 |  |  | 0.44 µmol/kg | 0.64 µmol/kg | 0.15 µmol/kg | IC50 [5]: 3 nM |
| OCCN1CCN(c2cn(-c3ccc(F)cc3)c3ccc(C(F)(F)F)cc23)CC1 |  |  | 0.079 µmol/kg | 0.06 µmol/kg | 0.023 µmol/kg | IC50 [5]: 1.4 nM |
| O=C1NCCN1CCN1CCC(c2cn(-c3ccc(F)cc3)c3ccccc23)CC1 | 0.082 nM | 7.74 | > 98 µmol/kg | > 98 µmol/kg | 0.036 µmol/kg | ED50 (Rattus norvegicus [6]): 0.082 µmol/kg |
| N#Cc1ccc2c(c1)c(C1=CCN(CCN3CCNC3=O)CC1)cn2-c1ccc(F)cc1 | 3.2 nM | 8.68 |  |  |  | ED50 [7]: 0.37 µmol/kg |
| CN1CC=C(c2cn(-c3ccc(F)cc3)c3ccccc23)CC1 |  | 8.80 | 1.3 µmol/kg | 3.6 µmol/kg | 0.15 µmol/kg |  |
| O=C1NCCN1CCN1CC=C(c2cn(-c3ccc(F)cc3)c3ccc(Cl)cc23)CC1 |  | 8.64 | 2 µmol/kg | 2.2 µmol/kg | 0.22 µmol/kg | ED50 (Rattus norvegicus [6]): 1.2 µmol/kg |
| Fc1ccc(-n2cc(C3=CCNCC3)c3cc(C(F)(F)F)ccc32)cc1 |  |  | 2.1 µmol/kg | > 14 µmol/kg | > 0.86 µmol/kg |  |
| Cc1nc2n(c(=O)c1CCN1CCC(c3noc4cc(F)ccc34)CC1)CCCC2 [RISPERIDONE] |  |  |  |  |  | ED50 (Rattus norvegicus [6]): > 3 µmol/kg |
| Fc1ccc(-n2cc(C3=CCNCC3)c3cc(Cl)ccc32)cc1 |  |  |  | > 61 µmol/kg | 1.5 µmol/kg | ED50 [8]: 17 µmol/kg |
| O=C1NCCN1CCN1CC=C(c2cn(-c3ccc(F)cc3)c3ccc(C(F)(F)F)cc23)CC1 |  |  | 0.37 µmol/kg | 0.49 µmol/kg | > 0.66 µmol/kg | ED50 [9]: 0.14 µmol/kg |
| OCCN1CCN([C@@H]2C[C@@H](c3ccc(F)cc3)c3ccc(C(F)(F)F)cc32)CC1 (racemic) [TEFLUDAZINE] | 2.8 nM |  | 0.2 µmol/kg | 0.12 µmol/kg | 0.029 µmol/kg |  |
| O=C1N(CCN2CCC(c3cn(-c4ccc(F)cc4)c4ccc(Cl)cc34)CC2)CCN1C1CCCC1 |  |  |  |  |  | ED50 [10]: > 2.1 µmol/kg; ED50 [11]: > 67 µmol/kg |
| Fc1ccc(-n2cc(C3CCNCC3)c3cc(Cl)ccc32)cc1 | 3.8 nM | 7.64 |  |  | 1.5 µmol/kg | ED50 [11]: > 90 µmol/kg |
| CN1CCN(C2=Nc3cc(Cl)ccc3Nc3ccccc32)CC1 [CLOZAPINE] |  |  |  |  |  | ED50 (Rattus norvegicus [6]): > 31 µmol/kg |
| CN1CCN(c2cn(-c3ccc(F)cc3)c3ccc(Cl)cc23)CC1 |  | 9.00 | 0.12 µmol/kg | 0.23 µmol/kg | 0.041 µmol/kg | IC50 [5]: 0.3 nM |
| O=C1NCCN1CCN1CCC(c2cn(-c3ccc(F)cc3)c3ccc(Cl)cc23)(c2cn(-c3ccc(F)cc3)c3ccc(Cl)cc23)CC1 |  |  |  |  |  | IC50 [5]: 120 nM |
| O=C1NCCN1CCN1CCC(c2c[nH]c3ccc(Cl)cc23)CC1 | 25 nM | 6.09 |  |  | > 14 µmol/kg | ED50 [7]: 47 µmol/kg |
| CN1CC=C(c2cn(-c3ccc(F)cc3)c3ccc(Cl)cc23)CC1 |  | 8.96 | 0.085 µmol/kg | 0.085 µmol/kg | 0.058 µmol/kg | IC50 [5]: 0.53 nM; ED50 (Rattus norvegicus [6]): > 0.19 µmol/kg |
| CN1CC=C(c2cn(-c3ccc(F)cc3)c3ccc([N+](=O)[O-])cc23)CC1 |  | 9.12 | 0.022 µmol/kg | 0.025 µmol/kg | 0.0091 µmol/kg | IC50 [5]: 1.9 nM |
| O=C1NCCN1CCN1CCN(c2cn(-c3ccc(F)cc3)c3ccc(Cl)cc23)CC1 |  | 7.68 | 7.8 µmol/kg | 4.5 µmol/kg | 0.015 µmol/kg | IC50 [5]: 4.4 nM |

Further lines, with some results ahead:

| IC50 [1] | pIC50 (D(2) dopamine receptor) | ED50 [4] | Structure (SMILES) | ED50 [2] | ED50 (Rattus norvegicus [3]) | further results |
| --- | --- | --- | --- | --- | --- | --- |
| 1 nM | 8.47 | 57 µmol/kg | O=C1NCCN1CCCN1CCC(c2cn(-c3ccc(F)cc3)c3ccc(Cl)cc23)CC1 | 11 µmol/kg | 1.8 µmol/kg |  |
| 2.7 nM | 8.35 | 1.5 µmol/kg | OCCN1CCC(c2cn(-c3ccc(F)cc3)c3ccc(Cl)cc23)CC1 | 3.8 µmol/kg | 0.034 µmol/kg |  |
| 1.3 nM | 8.66 | 34 µmol/kg | N#Cc1ccc2c(c1)c(C1CCN(CCN3CCNC3=O)CC1)cn2-c1ccc(F)cc1 |  |  |  |
| 0.3 nM | 8.43 | 98 µmol/kg | Cc1ccc2c(c1)c(C1CCN(CCN3CCNC3=O)CC1)cn2-c1ccc(F)cc1 | > 91 µmol/kg | 0.0083 µmol/kg |  |
| 1.3 nM | 8.42 | > 82 µmol/kg | O=C1NCCN1CCN1CCC(c2cn(-c3ccc(F)cc3)c3ccc(Br)cc23)CC1 | > 41 µmol/kg | 0.032 µmol/kg |  |
|  | 8.66 | 2.7 µmol/kg | O=C1NCCN1CCCCCCN1CCC(c2cn(-c3ccc(F)cc3)c3ccc(Cl)cc23)CC1 | 20 µmol/kg | > 2.2 µmol/kg | IC50 [5]: 2.5 nM |
|  |  | > 180 µmol/kg | O=C1NCCN1CCN1CCC(c2cn(-c3ccc(F)cc3)c3ccc(Cl)cc23)CC1 [SERTINDOLE] | > 91 µmol/kg | 0.052 µmol/kg | ED50 (Rattus norvegicus [6]): 0.03 µmol/kg |
| 1 nM | 7.62 | > 76 µmol/kg | COc1ccc2c(c1)c(C1CCN(CCN3CCNC3=O)CC1)cn2-c1ccc(F)cc1 | > 46 µmol/kg | 0.77 µmol/kg |  |
| 4.4 nM | 7.04 |  | O=C1N(CCN2CCC(c3cn(-c4ccc(F)cc4)c4ccc(Cl)cc34)CC2)CCN1c1ccccc1 |  | > 0.15 µmol/kg | ED50 [11]: > 77 µmol/kg |
| 59 nM | 7.11 | > 72 µmol/kg | O=C1NCCN1CCCCN1CCC(c2cn(-c3ccc(F)cc3)c3ccc(Cl)cc23)CC1 |  | > 2.2 µmol/kg |  |
| 0.24 nM | 8.19 | 2.6 µmol/kg | CN1CCN(CCN2CCC(c3cn(-c4ccc(F)cc4)c4ccc(Cl)cc34)CC2)C1=O | 31 µmol/kg | 0.021 µmol/kg |  |
| 0.48 nM | 8.33 | > 78 µmol/kg | O=C1NCCN1CCN1CCC(c2cn(-c3ccc(F)cc3)c3ccc(F)cc23)CC1 | > 78 µmol/kg | 0.052 µmol/kg | ED50 (Rattus norvegicus [6]): 0.0097 µmol/kg |
| 2.1 nM | 7.92 | > 69 µmol/kg | CC(C)N1CCN(CCN2CCC(c3cn(-c4ccc(F)cc4)c4ccc(Cl)cc34)CC2)C1=O | > 69 µmol/kg | 0.046 µmol/kg |  |
| 1.5 nM | 8.38 | 14 µmol/kg | O=C1NCCN1CCCCCN1CCC(c2cn(-c3ccc(F)cc3)c3ccc(Cl)cc23)CC1 |  | 1.5 µmol/kg |  |
| 1 nM | 8.72 | 22 µmol/kg | O=C1NCCN1CCN1CCC(c2cn(-c3ccc(F)cc3)c3ccc(C(F)(F)F)cc23)CC1 | 45 µmol/kg | 0.11 µmol/kg |  |
| 8 nM | 8.24 | > 67 µmol/kg | CS(=O)(=O)c1ccc2c(c1)c(C1CCN(CCN3CCNC3=O)CC1)cn2-c1ccc(F)cc1 | > 17 µmol/kg | 54 µmol/kg |  |
